Values of other authors, collected in paper PMC8869242 (Biomedicines, 2022).
Read-outs that look alike come from different tables or passages of the source.

Legend:
[1] = tested on: Ehrlich ascites carcinoma (EAC); conditions: cited from earlier work; for mice died during treatment: two injections per week for 2 weeks
[2] = tested on: endothelial cells (HUVEC); design: method as in PMID 34339726; conditions: cited from earlier work
CAM = tested on: CAM; design: method as in PMID 34339726; conditions: concentration of 5 mg/mL; cited from earlier work

SMILES	tumor volume reduction ([1]; i.p. 2 mg/kg, two injections per week for 2 weeks (cumulative 8 mg/kg))	mice died during treatment ([1]; i.p. 2 mg/kg)	tumor volume reduction ([1]; 3 mg/kg, two injections per week for 2 weeks (cumulative 12 mg/kg))	mice died during treatment ([1]; 3 mg/kg)	concentration range showing inhibition of migration of endothelial cells (HUVEC) [2]	angiogenesis in CAM assay (CAM)
O.O.O.O.O=C1[N-]S(=O)(=O)c2ccccc21.O=C1c2ccccc2S(=O)(=O)[N]1[Pd+].c1ccc(-c2cccc(-c3ccccn3)n2)nc1 [[Pd(sac)(terpy)](sac)·4H2O]	67.5%	1 of 10	–	–	–	–
O.O.O=C1[N-]S(=O)(=O)c2ccccc21.[Cl][Pd+].c1ccc(-c2cccc(-c3ccccn3)n2)nc1 [[PdCl(terpy)](sac)·2H2O]	–	–	69.8%	1 of 9	12.5 to 50 µM	inhibition of angiogenesis
